{"source": "patent US20210260051A1", "about": "“COMBINATION OF EZH2 INHIBITOR AND CHECKPOINT THERAPY FOR THE TREATMENT OF CANCER” (Board of Regents, The University of Texas System, priority 2018, published 2021)", "tested_on": "murine inducible regulatory T cell (iTreg) differentiation", "test": "in vitro differentiation of murine naïve CD4 T cells into inducible regulatory T cells with EZH2 inhibitors", "format": "cell-based, mouse", "conditions": "compared with the other EZH2 inhibitors; FIG. 4A", "excerpt": "FIGS. 4A-B: (FIG. 4A) Percentages of inducible regulatory T cells following in vitro differentiation of murine naïve CD4 T cells into regulatory T cells in the presence and absence of various EZH2 inhibitors. (FIG. 4B) Representative counts of viable cells in culture following treatment with EZH2 inhibitors. Data is representative of three independent experiments. One-way ANOVA was used to determine significance between the groups. **p<0.01.\nTo investigate whether the data observed in the FoxP3^creEZH2^fl/fl mouse model could be recapitulated by pharmacological inhibition of EZH2 in T cells, the effect of different EZH2 inhibitors on regulatory T cell differentiation was compared. CPI-1205 was compared with commercially available EZH2 inhibitors.\nIn vitro T cell assays. Human peripheral regulatory T cells were isolated from peripheral blood mononuclear cells by enriching for CD4^+CD127^low CD25^+ cells using the EasySep Human Regulatory T Cell Isolation Kit (STEMCELL Technologies, Cambridge, Mass.). For mouse in vitro regulatory T cell differentiation, CD4^+CD25^low CD44^low CD62L^hinaïve splenic T cells were isolated from C57BL/6 mice using BD FACSAria (BD Biosciences, San Jose, Calif.). The cells were then differentiated in the presence of recombinant murine IL-2 (R&D, 402-ML), tumor growth factor-β (TGF-β, R&D 7666-MB), CPI-1205 or dimethyl sulfoxide (DMSO) and cultured for 6 days.", "data": [{"compound": "COc1cc(C)[nH]c(=O)c1CNC(=O)c1c(C)n([C@H](C)C2CCN(CC(F)(F)F)CC2)c2ccccc12", "note": "[CPI-1205, N-[(4-methoxy-6-methyl-2-oxo-1H-pyridin-3-yl)methyl]-2-methyl-1-[(1R)-1-[1-(2,2,2-trifluoroethyl)piperidin-4-yl]ethyl]indole-3-carboxamide]", "values": [{"measurement": "suppression of murine inducible regulatory T cell (iTreg) differentiation", "value": "most striking effect"}]}]}
